Measured values as given in patent EP0908457B1, “3-(1,2-benzisothiazol- and isoxazol-5-Y1)-2,4(1H,3H)-pyrimidinedione or thione and 3-(1,2-benzisothiazol- and isoxazol-5-y1)-4(3H)-pyrimidinone or thione herbicidal agents” (BASF AKTIENGESELLSCHAFT, priority 1997, dated 1999).

Assays:
[1] = system: Oryza sativa, (L.) Tebonnet; assay: Rice tolerance to post-transplant applications under flooded paddy conditions (Example 187), ORYSAT (Rice, Tebonnet); details: rated three to four weeks after treatment
Cyperus iria = assay: Preemergence weed control under flooded paddy conditions, CYPIR (Rice Flatsedge); assay type: in vivo; details: preemergence, flooded paddy, rated three to four weeks after treatment; note: meaning of each grade not given here
[2] = system: Monochoria vaginalis, Presl.; assay: Preemergence weed control under flooded paddy conditions, MOOVA (Monochoria); assay type: in vivo; details: preemergence, flooded paddy, rated three to four weeks after treatment; note: meaning of each grade not given here
Sagittaria pygmaea, L. = assay: Preemergence weed control under flooded paddy conditions, SAGPY (Arrowhead (Pygmaea)); assay type: in vivo; details: preemergence, flooded paddy, rated three to four weeks after treatment; note: meaning of each grade not given here
[3] = system: Cyperus serotinus, Rottb.; assay: Preemergence weed control under flooded paddy conditions, CYPSE (Flatsedge); assay type: in vivo; details: preemergence, rated three to four weeks after treatment; note: meaning of each grade not given here
[4] = system: Echinochloa oryzoides (Ard.) Fritsch.; assay: Preemergence weed control under flooded paddy conditions, ECHORC (Watergrass (Calif.)); assay type: in vivo; details: preemergence, flooded paddy, rated three to four weeks after treatment; note: meaning of each grade not given here

| SMILES | herbicidal effect rating, ORYSAT (rice tolerance) ([1]; 0.0313 kg/ha) | herbicidal effect rating, ORYSAT (rice tolerance) ([1]; 0.0625 kg/ha) | herbicidal effect rating, ORYSAT (rice tolerance) ([1]; 0.1250 kg/ha) | herbicidal effect rating, ORYSAT (rice tolerance) ([1]; 0.2500 kg/ha) | herbicidal effect rating, CYPIR (Cyperus iria; 0.0313 kg/ha) | herbicidal effect rating, CYPIR (Cyperus iria; 0.0625 kg/ha) | herbicidal effect rating, CYPIR (Cyperus iria; 0.1250 kg/ha) | herbicidal effect rating, CYPIR (Cyperus iria; 0.2500 kg/ha) | herbicidal effect rating, MOOVA ([2]; 0.0313 kg/ha) | herbicidal effect rating, MOOVA ([2]; 0.0625 kg/ha) | herbicidal effect rating, MOOVA ([2]; 0.1250 kg/ha) | herbicidal effect rating, MOOVA ([2]; 0.2500 kg/ha) | herbicidal effect rating, SAGPY (Sagittaria pygmaea, L.; 0.0313 kg/ha) | herbicidal effect rating, SAGPY (Sagittaria pygmaea, L.; 0.0625 kg/ha) | herbicidal effect rating, SAGPY (Sagittaria pygmaea, L.; 0.1250 kg/ha) | herbicidal effect rating, SAGPY (Sagittaria pygmaea, L.; 0.2500 kg/ha) | herbicidal effect rating, CYPSE ([3]; 0.0313 kg/ha) | herbicidal effect rating, CYPSE ([3]; 0.0625 kg/ha) | herbicidal effect rating, CYPSE ([3]; 0.1250 kg/ha) | herbicidal effect rating, CYPSE ([3]; 0.2500 kg/ha) | other results |
| --- | --- | --- | --- | --- | --- | --- | --- | --- | --- | --- | --- | --- | --- | --- | --- | --- | --- | --- | --- | --- | --- |
| COC(=O)C(C)Oc1c(C)cc(C)cc1-c1nsc2ccc(-n3c(=O)cc(C(F)(F)F)n(C)c3=O)cc12 (stereo not drawn) [Example 27, Methyl 2-{{6-{5-[3,6-dihydro-3-methyl-2,6-dioxo-4-(trifluoromethyl)-1(2H)-pyrimidinyl]-1,2-benzisothiazol-3-yl}-2,4-xylyl}oxy}propionate] | 2.0 | 3.0 | 5.0 | 6.0 | 2.0 | 4.0 | 6.0 | 9.0 | 8.0 | 9.0 | 9.0 | 9.0 | 0.0 | 0.0 | 2.0 | 4.0 | 0.0 | 0.0 | 0.0 | 2.0 | herbicidal effect rating, ECHORC ([4]; 0.0313 kg/ha): 6.0; herbicidal effect rating, ECHORC ([4]; 0.0625 kg/ha): 7.0; herbicidal effect rating, ECHORC ([4]; 0.1250 kg/ha): 9.0; herbicidal effect rating, ECHORC ([4]; 0.2500 kg/ha): 9.0 |
| CCc1ccc(OC(C)C(=O)OC)c(-c2nsc3ccc(-n4c(=O)cc(C(F)(F)F)n(C)c4=O)cc23)c1 (stereo not drawn) [Example 28, Methyl 2-{2-{5-[3,6-dihydro-3-methyl-2,6-dioxo-4-(trifluoromethyl)-1(2H)-pyrimidinyl]-1,2-benzisothiazol-3-yl}-4-ethylphenoxy}propionate] | 3.0 | 4.0 | 7.0 | 9.0 | 2.0 | 4.0 | 6.0 | 9.0 | 8.0 | 9.0 | 9.0 | 9.0 | 0.0 | 2.0 | 4.0 | 8.0 | 0.0 | 0.0 | 0.0 | 4.0 | herbicidal effect rating, ECHORC ([4]; 0.0313 kg/ha): 8.0; herbicidal effect rating, ECHORC ([4]; 0.0625 kg/ha): 9.0; herbicidal effect rating, ECHORC ([4]; 0.1250 kg/ha): 9.0; herbicidal effect rating, ECHORC ([4]; 0.2500 kg/ha): 9.0 |
| COC(=O)C(C)Oc1ccc(C(C)C)cc1-c1nsc2ccc(-n3c(=O)cc(C(F)(F)F)n(C)c3=O)cc12 (stereo not drawn) [Example 30, Methyl 2-{2-{5-[3,6-dihydro-3-methyl-4-(trifluoromethyl)-2,6-dioxo-1(2H)-pyrimidinyl]-1,2-benzisothiazol-3-yl}-4-isopropylphenoxy}propionate] | 2.0 | 3.0 | 3.0 | 3.5 | 2.0 | 6.0 | 8.0 | 8.0 | 9.0 | 9.0 | 9.0 | 9.0 | 0.0 | 0.0 | 2.0 | 7.0 | 0.0 | 0.0 | 4.0 | 2.0 | herbicidal effect rating, ECHORC ([4]; 0.0313 kg/ha): 6.5; herbicidal effect rating, ECHORC ([4]; 0.0625 kg/ha): 8.5; herbicidal effect rating, ECHORC ([4]; 0.1250 kg/ha): 9.0; herbicidal effect rating, ECHORC ([4]; 0.2500 kg/ha): 9.0 |
| COCc1nsc2ccc(-n3c(=O)cc(C(F)(F)F)n(C)c3=O)cc12 [Example 31, 3-[3-(Methoxymethyl)-1,2-benzisothiazol-5-yl]-1-methyl-6-(trifluoromethyl)-2,4(1H,3H)-pyrimidinedione] | 7.5 | 8.0 | 7.5 | 8.0 | 9.0 | 9.0 | 9.0 | 9.0 | 9.0 | 9.0 | 9.0 | 9.0 | 4.0 | 7.0 | 9.0 | 9.0 | 7.0 | 7.0 | 8.0 | 9.0 | herbicidal effect rating, ECHORC ([4]; 0.0313 kg/ha): 7.0; herbicidal effect rating, ECHORC ([4]; 0.0625 kg/ha): 8.5; herbicidal effect rating, ECHORC ([4]; 0.1250 kg/ha): 9.0; herbicidal effect rating, ECHORC ([4]; 0.2500 kg/ha): 9.0 |
